This passage reports TGI and GI50 results from PubChem BioAssay (NCI).

Several values for one entry are separate records, joined by “and”; a condition that tells them apart may be missing. Equal values may be shown once.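 How tested: cells in 96-well plates exposed to compound for 48 hours at five concentrations. GI50 = concentration required for 50% inhibition of growth. TGI marks complete inhibition of growth.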

The first assay relates to LOX IMVI melanoma. The assay is described as follows: DTP human tumour cell line panel, 48 h.
Usually TGI stands for the concentration giving total growth inhibition. Higher therefore signals lower sensitivity of the cells. Turning to `Cc1nc2ccccc2nc1-c1ccc(N=[N+]([O-])c2ccc(-c3nc4ccccc4nc3C)cc2)cc1`, the TGI was above 100 µM.

Another assay deals with M14 melanoma. Nature of the assay: DTP human tumour cell line panel, 48 h.
One may read the GI50 as the concentration giving 50% growth inhibition. As for `CCCn1c(N)c(C(=O)N/N=C(/C)c2cc3cccc(OC)c3o2)sc1=S`, the GI50 was 53.8 µM and the TGI is above 100 µM.

On to `C=CCc1cccc(/C=N/NC(=O)CN2CCN(Cc3ccccc3)CC2)c1O`, for which the GI50 was 1.84 µM and the TGI came to 13.3 µM.

In the case of `O=c1cc2oc3cc(O)c(O)cc3c(-c3ccccc3O)c-2cc1O`, the GI50 was 6.66 µM and the TGI was 32.1 µM.

For the compound `N=c1ccn2c(n1)OC1C(O)C(CO)OC12` (stereo not given), the 50% growth inhibitory concentration (GI50) was 0.228 µM.

As to `C[C@H]1Oc2cc(cnc2N)-c2c(nn(C)c2C#N)CN(C)C(=O)c2ccc(F)cc21`, the GI50 was 48.9 µM and the TGI is above 100 µM.

For the compound `Cc1ccc(-c2nc3ccc([N+](=O)[O-])cc3[nH]2)cc1`, the TGI was above 100 µM.

With `N#Cc1c(-c2ccc(F)cc2)c(-c2ccc(F)cc2)nn(CCO)c1=O`, the TGI is above 100 µM.

On to `CC(=O)c1cc2c(o1)C(=O)c1ccccc1C2=O`, for which the GI50 is 0.169 µM and 0.183 µM; the TGI was 0.322 µM and 0.345 µM.

Regarding `CCN(CC)c1nc(-c2ccc(Cl)cc2Cl)nc2ccccc12`, the GI50 was 18 µM and the TGI stood at 37.9 µM.

On to `Cc1nc2ccccc2nc1-c1ccc(N=[N+]([O-])c2ccc(-c3nc4ccccc4nc3C)cc2)cc1`, for which the TGI was above 100 µM.

The test system of a further assay is SK-MEL-28 melanoma. The assay is described as follows: DTP human tumour cell line panel, 48 h.
For `CCCn1c(N)c(C(=O)N/N=C(/C)c2cc3cccc(OC)c3o2)sc1=S`, the GI50 was 49.7 µM and the TGI was above 100 µM.

As for `C=CCc1cccc(/C=N/NC(=O)CN2CCN(Cc3ccccc3)CC2)c1O`, the GI50 is 2.43 µM and the TGI was 15.5 µM.

`O=c1cc2oc3cc(O)c(O)cc3c(-c3ccccc3O)c-2cc1O`: the GI50 is 37.2 µM and the total growth inhibition concentration (TGI) is above 100 µM.

As for `N=c1ccn2c(n1)OC1C(O)C(CO)OC12` (stereo not given), the GI50 is 6.3 µM and > 36.5 µM; the TGI is above 607 µM.

Regarding `C[C@H]1Oc2cc(cnc2N)-c2c(nn(C)c2C#N)CN(C)C(=O)c2ccc(F)cc21`, the GI50 is 50.3 µM and the TGI was above 100 µM.

On to `Cc1ccc(-c2nc3ccc([N+](=O)[O-])cc3[nH]2)cc1`, for which the total growth inhibition concentration (TGI) is above 100 µM.

`N#Cc1c(-c2ccc(F)cc2)c(-c2ccc(F)cc2)nn(CCO)c1=O` had a TGI above 100 µM.

Take `CC(=O)c1cc2c(o1)C(=O)c1ccccc1C2=O`: the GI50 was 0.222 µM and 0.292 µM; the TGI is 0.437 µM and 0.689 µM.

`CCN(CC)c1nc(-c2ccc(Cl)cc2Cl)nc2ccccc12`: the GI50 is 31.8 µM and the TGI is above 100 µM.

As to `Cc1nc2ccccc2nc1-c1ccc(N=[N+]([O-])c2ccc(-c3nc4ccccc4nc3C)cc2)cc1`, the TGI is above 100 µM.

The test system of the next assay is T-47D breast. Nature of the assay: DTP human tumour cell line panel, 48 h.
As for `CCCn1c(N)c(C(=O)N/N=C(/C)c2cc3cccc(OC)c3o2)sc1=S`, the GI50 was above 100 µM and the TGI is above 100 µM.

Consider `C=CCc1cccc(/C=N/NC(=O)CN2CCN(Cc3ccccc3)CC2)c1O`, for which the GI50 was 2.32 µM and the TGI was 14.9 µM.

As for `O=c1cc2oc3cc(O)c(O)cc3c(-c3ccccc3O)c-2cc1O`, the GI50 is 9.51 µM and the TGI was above 100 µM.

`N=c1ccn2c(n1)OC1C(O)C(CO)OC12` (stereo not given): the GI50 is 16.8 µM and the TGI was above 1000 µM.

As to `C[C@H]1Oc2cc(cnc2N)-c2c(nn(C)c2C#N)CN(C)C(=O)c2ccc(F)cc21`, the GI50 was 36.2 µM and the TGI is above 100 µM.

Take `Cc1ccc(-c2nc3ccc([N+](=O)[O-])cc3[nH]2)cc1`: the TGI was above 100 µM.

Regarding `N#Cc1c(-c2ccc(F)cc2)c(-c2ccc(F)cc2)nn(CCO)c1=O`, the total growth inhibition concentration (TGI) was above 100 µM.

For the compound `CC(=O)c1cc2c(o1)C(=O)c1ccccc1C2=O`, the GI50 was 1.33 µM and 1.6 µM; the TGI is 3.43 µM and 4.06 µM.

On to `CCN(CC)c1nc(-c2ccc(Cl)cc2Cl)nc2ccccc12`, for which the GI50 is 18.1 µM and the TGI came out at 49.6 µM.

Regarding `Cc1nc2ccccc2nc1-c1ccc(N=[N+]([O-])c2ccc(-c3nc4ccccc4nc3C)cc2)cc1`, the TGI was above 100 µM.

A further assay concerns UACC-257 melanoma. The assay is described as follows: DTP human tumour cell line panel, 48 h.
Take `CCCn1c(N)c(C(=O)N/N=C(/C)c2cc3cccc(OC)c3o2)sc1=S`: the GI50 is 23.2 µM and the TGI is above 100 µM.

Turning to `C=CCc1cccc(/C=N/NC(=O)CN2CCN(Cc3ccccc3)CC2)c1O`, the GI50 is 2.46 µM and the TGI stood at 13.8 µM.

Take `O=c1cc2oc3cc(O)c(O)cc3c(-c3ccccc3O)c-2cc1O`: the GI50 was 20.4 µM and the TGI is above 100 µM.

Consider `N=c1ccn2c(n1)OC1C(O)C(CO)OC12` (stereo not given), for which the GI50 was above 100 µM and the TGI is above 1000 µM.

Consider `C[C@H]1Oc2cc(cnc2N)-c2c(nn(C)c2C#N)CN(C)C(=O)c2ccc(F)cc21`, for which the GI50 is 25.8 µM and the TGI was above 100 µM.

`Cc1ccc(-c2nc3ccc([N+](=O)[O-])cc3[nH]2)cc1`: the concentration for total growth inhibition (TGI) is above 100 µM.

In turn, `N#Cc1c(-c2ccc(F)cc2)c(-c2ccc(F)cc2)nn(CCO)c1=O` registered a total growth inhibition concentration (TGI) above 100 µM.

Consider `CC(=O)c1cc2c(o1)C(=O)c1ccccc1C2=O`, for which the GI50 is 0.191 µM and 0.197 µM; the total growth inhibition concentration (TGI) is 0.37 µM and 0.451 µM.

`CCN(CC)c1nc(-c2ccc(Cl)cc2Cl)nc2ccccc12`: the GI50 was 17.3 µM and the TGI amounted to 50.7 µM.

Turning to `Cc1nc2ccccc2nc1-c1ccc(N=[N+]([O-])c2ccc(-c3nc4ccccc4nc3C)cc2)cc1`, the TGI is above 100 µM.

Another assay deals with UACC-62 melanoma. The assay is described as follows: DTP human tumour cell line panel, 48 h.
On to `CCCn1c(N)c(C(=O)N/N=C(/C)c2cc3cccc(OC)c3o2)sc1=S`, for which the GI50 is 34.6 µM and the TGI was above 100 µM.

On to `C=CCc1cccc(/C=N/NC(=O)CN2CCN(Cc3ccccc3)CC2)c1O`, for which the GI50 was 3.28 µM and the total growth inhibition concentration (TGI) came to 12.8 µM.

On to `O=c1cc2oc3cc(O)c(O)cc3c(-c3ccccc3O)c-2cc1O`, for which the GI50 was 6.25 µM and the TGI was 86 µM.

Turning to `N=c1ccn2c(n1)OC1C(O)C(CO)OC12` (stereo not given), the GI50 is 1.55 µM; the TGI was 212 µM and > 100 µM.

As for `C[C@H]1Oc2cc(cnc2N)-c2c(nn(C)c2C#N)CN(C)C(=O)c2ccc(F)cc21`, the GI50 is 22.4 µM and the TGI was above 100 µM.

`Cc1ccc(-c2nc3ccc([N+](=O)[O-])cc3[nH]2)cc1` returned a TGI above 100 µM.

For the compound `N#Cc1c(-c2ccc(F)cc2)c(-c2ccc(F)cc2)nn(CCO)c1=O`, the TGI is above 77 µM.

On to `CC(=O)c1cc2c(o1)C(=O)c1ccccc1C2=O`, for which the concentration for 50% growth inhibition (GI50) is 0.229 µM and 0.178 µM; the TGI is 0.476 µM and 0.335 µM.

Regarding `CCN(CC)c1nc(-c2ccc(Cl)cc2Cl)nc2ccccc12`, the GI50 is 13.7 µM and the TGI turned out to be 41.3 µM.

The compound `Cc1nc2ccccc2nc1-c1ccc(N=[N+]([O-])c2ccc(-c3nc4ccccc4nc3C)cc2)cc1` came in with a TGI above 100 µM.
